What was measured:
HuT78 cells = experiment: TM7SF3 C>U RNA editing in HuT78 cells treated with mitochondrial inhibitors or thapsigargin; format: cell-based, human; conditions: HuT78, normoxia; for RNA editing level (TM7SF3): 0.5×10^6 cells per 500 μl, inhibitor 1 μM
From the text: We tested the effect of inhibitors of mitochondrial complex II by atpenin A5 (AtA5) and of the complex III by myxothiazol (MXT) on RNA editing in HuT78 cells cultured in normoxia. Additionally, to test whether endoplasmic reticulum (ER) stress can also induce RNA editing, we treated the cells with Thapsigargin (Tg). Tg is considered to induce ER stress by raising intracellular calcium levels and lowers the ER calcium levels by specifically inhibiting the endoplasmic reticulum Ca^++ ATPase, resulting in the accumulation of unfolded proteins and an increased accumulation eIF-2α phosphorylated at Ser 51 (FIGS. 33c and 35b). To test the effect of hypoxic stress alone on HuT78 cells, we reduced the cell density to avoid cellular crowding and cultured the cells at an intermediate density of 0.5×10^6 cells per 500 μl per well in 24 well plates with or without the chemical inhibitors in normoxia, and hypoxia alone for one or two days. Under these conditions, we determined RNA editing level and the stabilization of HIF-1α in these cells. […] RNA editing levels increased to approximately 30% in cells treated with MXT, AtA5 or hypoxia alone on day 2. […] Furthermore, HIF-1α was stabilized only when the cells were subjected to hypoxia but not in normoxia in the presence or absence of the mitochondrial inhibitors (FIG. 32c).
(§1) For testing the mitochondrial inhibitors, HuT78 and NK-92 cells were cultured at […] cells per 0.5 ml in 24 well plates in normoxia with or without AtA5 and MXT or hypoxia alone for 2 days at 37° C.
(§2) Human IFN-γ was obtained from PeproTech and used at a concentration of 50 ng/ml. AtA5 (Cayman chemical #11898) and MXT (Sigma Aldrich #T5580) was used at a concentration of 1 μM.
(§3) Total RNA was isolated and reverse transcribed to generate cDNAs. DNA primers used for PCR were obtained from Integrated DNA Technologies and are noted in Table 6. Primers used for PCR of cDNA templates were designed such that the amplicons spanned multiple exons. […] To quantify RNA editing level, the major and minor chromatogram peak heights at putative edited nucleotides were quantified with Sequencher 5.0/5.1 software (Gene Codes, MI). […] For quantitative PCR to assess APOBEC3G and APOBEC3F gene expression, reactions using LightCycler™ 480 Probes Master and SYBR™ Green I dye were performed on a LightCycler™ 480 System (Roche). Quantification cycle (Cq) values were calculated by the instrument software using the maximum second derivative method, and the mean Cq value of duplicate PCR reactions was used for analysis.

APOBEC3A = molecular target: T1, APOBEC3A (Homo sapiens, UniProt P31941); experiment: In vitro SDHB RNA editing assay with purified APOBEC3A; format: biochemical; conditions: chelation of zinc with 10 μM 1,10-phenanthroline, 2 hours at 37° C
T1 construct: made in house; host or cells: Rosetta 2(DE3)pLysS E. coli; pET21 construct from Dr. Jinwoo Ahn
Description: Rosetta™ 2(DE3)pLysS E. coli (EMD Millipore®) transformed with a bacterial expression construct for C-His6-tagged APOBEC3A and grown in Luria broth at 37° C. were induced for expression of the recombinant protein with 0.3 mM isopropyl β-D-1-thiogalactopyranoside (IPTG) and cultured overnight at 18° C. Harvested cells were lysed with a French pressure cell (American Instrument Corporation®, Hartland, Wis.) and Ni-NTA His.Bind Resin™ (EMD Millipore®) was used as per manufacturer's instructions to purify APOBEC3A protein from the lysates by affinity chromatography. Isolated protein was concentrated using an Amicon™ Ultra-4 Centrifugal Filter Unit with Ultracel-3 membrane (EMD Millipore®; nominal molecular weight limit of 3 kDa). The concentrated protein was stored in 25 mM Tris (pH 8.0) with 50 mM NaCl, 1 mM DTT, 5% v/v glycerol, and 0.02% w/v sodium azide.
Whole cell lysates of 293T transfectants were prepared using lysis buffer containing 0.2% Surfact-Amps™ NP-40 (Thermo Fisher®), 30 mM 4-(2-hydroxyethyl)-1-piperazine-ethane-sulfonic acid (HEPES; pH 7.5), 100 mM KCl, 25 mM NaCl, 1.5 mM MgCl2, 1 mM DTT, and 0.5× Halt™ protease and phosphatase inhibitor cocktail, and stored with 10% v/v glycerol at −80° C. […]

NK-92 cells = experiment: TM7SF3 C>U RNA editing in NK-92 cells treated with mitochondrial inhibitors; format: cell-based, human; conditions: NK-92, normoxia, intermediate density, 24 well plates, inhibitor 1 μM, 2 days
Description: We treated NK-92 cells with normoxia with or without the mitochondrial inhibitors (AtA5 or MXT) or hypoxia alone at intermediate density in 24 well plates for 2 days. […] The reason behind the difference in hypoxia induced RNA editing level of HuT78 and NK-92 cells may be due to metabolic differences between the two cell lines.
as §1, §2
as §3, with “cDNAs.” for “cDNAs. DNA primers used for PCR were obtained from Integrated DNA Technologies and are noted in Table 6. Primers used for PCR of cDNA templates were designed such that the amplicons spanned multiple exons.”

T1 sequence (P31941 whole entry): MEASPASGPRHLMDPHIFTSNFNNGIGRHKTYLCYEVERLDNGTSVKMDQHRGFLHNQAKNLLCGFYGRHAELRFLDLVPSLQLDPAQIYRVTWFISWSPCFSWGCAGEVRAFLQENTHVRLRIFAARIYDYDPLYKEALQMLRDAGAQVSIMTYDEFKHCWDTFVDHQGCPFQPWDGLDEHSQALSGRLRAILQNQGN

| Compound | induction of RNA editing (TM7SF3) (HuT78 cells; one or two days) | c.136C>U editing of SDHB RNA by His6-tagged APOBEC3A (APOBEC3A) | RNA editing level (TM7SF3) (HuT78 cells; day 1) | RNA editing level (TM7SF3) (HuT78 cells; day 2) | RNA editing level (TM7SF3) (NK-92 cells) |
| --- | --- | --- | --- | --- | --- |
| C/C=C(/C)C(=O)O[C@H]1C(C)=C2[C@H]([C@@H]1OC(=O)CCCCCCC)[C@@](C)(OC(C)=O)C[C@H](OC(=O)CCC)[C@@]1(O)[C@H]2OC(=O)[C@@]1(C)O [Tg, Thapsigargin] | did not induce RNA editing | – | – | – | – |
| c1cnc2c(c1)ccc1cccnc12 [1,10-phenanthroline] | – | abolished the editing | – | – | – |
| CO/C(=C/C(N)=O)[C@H](C)[C@H](/C=C/c1csc(-c2csc([C@@H](C)/C=C/C=C/C(C)C)n2)n1)OC [MXT, myxothiazol] | – | – | approximately 10% | approximately 30% | ~25% |
| COc1[nH]c(=O)c(C(=O)[C@@H](C)C[C@H](C)[C@@H](Cl)CCl)c(O)c1OC [AtA5, atpenin A5] | – | – | – | approximately 30% | ~25% |
